Consider seven compounds from patent US20260176249A1, “PROTEIN KINASE INHIBITOR, PREPARATION METHOD THEREFOR, AND APPLICATION THEREOF” (SHANDONG LUYE PHARMACEUTICAL CO., LTD., priority 2021, published 2026).

Each structure is given as a SMILES string. pIC50: −log10 of the molar value. Where two headings read alike, the source gives them in different places.

One data set has as its target T1, PLK1 kinase (Homo sapiens, UniProt P53350).
T1 construct: purchased Carnabio (Carna Biosciences) 05-157
Put plainly: Inhibitory activity on PLK1 kinase. To be noted: for pIC50: PLK1 kinase, highest concentration 1 μM, 10 points, read-out: IC50; for Imax: maximum effect caused by the compound at the test concentration. In kind it is biochemical. The essentials: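 TR-FRET kinase assay: PLK1 enzyme premixed with peptide substrate, reaction started by ATP addition and run at 23 °C. Detection reagent then added, 60 min at 23 °C, EnVision read. Compounds tested as 10-point 1:3 series from 1 μM top concentration, duplicate wells; curves fitted.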

The next data set has as its system HCT116 cells. Kind of data set: Inhibitory activity on HCT116 cell proliferation (ATPlite). In kind it is cell-based. As to conditions: Homo sapiens, HCT-116, HCT116 cells, 72 h. In outline:
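HCT116 cells seeded at 720 cells/well in RPMI1640 + 10% FBS and grown overnight at 37 °C, 5% CO2, then exposed to compound for 72 h. Viability read by ATPlite 1step luminescence; IC50 calculated from inhibition-rate curves.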
On the technique in general: Cellular ATP, detected with luciferase, serves as a proxy for viable cell number.

Data set [1] in a line: Metabolic stability in mouse liver microsomes. As to conditions: for CLint scaled at 1 µM / half-life at 1 µM / microsomal CLint at 1 µM: mouse; for CLint scaled at 1 µM / half-life at 1 µM: pH 7.4; for microsomal CLint at 1 µM: pH 7.4, read-out: CLint(mic). The data set is classed as in vitro ADME. In outline: (§1)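 Compounds incubated at 37 °C with mouse, rat or human liver microsomes in 100 mM phosphate buffer pH 7.4, started with NADPH/MgCl2 and sampled at 0–60 min. Parent remaining quantified by LC-MS. T1/2 and CLint(mic) derived from depletion, scaled to CLint using 45 mg protein/g liver and species liver/body weight ratios.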

A short description of data set [2]: Metabolic stability in human liver microsomes. The data set is classed as in vitro ADME. As to conditions: for CLint scaled at 1 µM / half-life at 1 µM / microsomal CLint at 1 µM: human; for CLint scaled at 1 µM / half-life at 1 µM: pH 7.4; for microsomal CLint at 1 µM: pH 7.4, read-out: CLint(mic). In outline:
as §1
For orientation: Liver microsomes are vesicles of endoplasmic reticulum, rich in cytochrome P450 enzymes.

Data set [3] in a line: Metabolic stability in rat liver microsomes. The data set is classed as in vitro ADME. As to conditions: for CLint scaled at 1 µM / half-life at 1 µM / microsomal CLint at 1 µM: rat; for CLint scaled at 1 µM / half-life at 1 µM: pH 7.4; for microsomal CLint at 1 µM: pH 7.4, read-out: CLint(mic). In outline: as §1
[4] abbreviates: read-out: half inhibitory concentration.

T1 sequence (P53350 whole entry): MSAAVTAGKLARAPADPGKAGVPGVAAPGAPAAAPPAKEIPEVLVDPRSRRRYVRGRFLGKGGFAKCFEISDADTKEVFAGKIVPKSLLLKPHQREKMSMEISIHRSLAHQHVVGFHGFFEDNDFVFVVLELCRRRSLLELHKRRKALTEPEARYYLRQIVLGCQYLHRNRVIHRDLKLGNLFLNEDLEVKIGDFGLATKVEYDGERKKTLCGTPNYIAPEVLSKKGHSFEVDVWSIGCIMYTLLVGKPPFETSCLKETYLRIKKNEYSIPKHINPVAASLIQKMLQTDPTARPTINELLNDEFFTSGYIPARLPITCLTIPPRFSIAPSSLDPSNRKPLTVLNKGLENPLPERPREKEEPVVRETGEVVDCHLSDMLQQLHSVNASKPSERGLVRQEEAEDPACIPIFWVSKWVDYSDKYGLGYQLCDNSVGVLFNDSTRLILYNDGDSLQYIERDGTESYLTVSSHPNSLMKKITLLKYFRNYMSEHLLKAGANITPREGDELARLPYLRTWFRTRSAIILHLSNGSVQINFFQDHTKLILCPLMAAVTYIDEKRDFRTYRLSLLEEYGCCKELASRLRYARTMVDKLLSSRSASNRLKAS

For orientation: CLint scaled means a measure of how fast metabolising enzymes remove a compound, apart from limits set by blood flow. What is called half-life is the time in which the quantity being followed falls by half. As to `CN1CCN(c2ccc(OC(F)(F)F)c(Nc3ncc4c(n3)-c3c(c(C(=O)NN)nn3CCO)CC4)c2)CC1` [Compound 13], on PLK1 kinase, the pIC50 is 8.60 and the Imax stood at 99.41%. For the same compound, the pIC50 in the data set with HCT116 cells (read-out: IC50) was 6.08. In addition, in data set [1], the “60 min remaining amount” value is 38.6%, the Clearance rate result is listed as “Medium”, the CLint scaled at 1 µM was determined as 123 mL/min/kg and the half-life at 1 µM turned out to be 44.7 min. Besides, the microsomal CLint at 1 µM in data set [1] stood at 31 µL/min/mg. Moreover, in data set [2], the “60 min remaining amount” value came to 58.5%, the Clearance rate result is listed as “Medium”, the CLint scaled at 1 µM is 17.5 mL/min/kg and the half-life at 1 µM amounted to 71.4 min. In addition, the microsomal CLint at 1 µM in data set [2] is 19.4 µL/min/mg. Besides, in data set [3], the “60 min remaining amount” value is 27.8%, the Clearance rate entry is “Medium”, the CLint scaled at 1 µM came to 74.5 mL/min/kg and the half-life at 1 µM is 33.5 min. Also, the microsomal CLint at 1 µM in data set [3] came out at 41.4 µL/min/mg.
Take `Cn1nc(C(N)=O)c2ccc3cnc(Nc4cc(N5CCN(CCO)CC5)ccc4OC(F)(F)F)nc3c21` [Compound 16]: on PLK1 kinase, the pIC50 is 8.32 and the Imax is 98.76%. Further, the pIC50 in the data set on HCT116 cells (read-out: IC50) was 6.30. For the same compound, in data set [1], the “60 min remaining amount” value worked out at 24.6%, the Clearance rate entry is “Medium”, the CLint scaled at 1 µM was 184 mL/min/kg and the half-life at 1 µM is 29.9 min. The microsomal CLint at 1 µM in data set [1] is 46.4 µL/min/mg. For the same compound, in data set [2], the “60 min remaining amount” value came to 23.3%, the Clearance rate result is recorded as “Medium”, the CLint scaled at 1 µM was determined as 44.1 mL/min/kg and the half-life at 1 µM worked out at 28.3 min. Moreover, the microsomal CLint at 1 µM in data set [2] is 49 µL/min/mg. Besides, in data set [3], the “60 min remaining amount” value was 21.6%, the Clearance rate entry is given as “Medium”, the CLint scaled at 1 µM is 90 mL/min/kg and the half-life at 1 µM was 27.7 min. Further, the microsomal CLint at 1 µM in data set [3] was found to be 50.5 µL/min/mg.
With `CN1CCN(c2ccc(OC(F)(F)F)c(Nc3ncc4c(n3)-c3c(c(C(N)=O)nn3CCO)CC4)c2)CC1` [Onvansertib, reference compound], on PLK1 kinase, the Imax is given as 100.02%. Further, in the data set on HCT116 cells (read-out: IC50), the pIC50 was 7.38. Moreover, in data set [1], the “60 min remaining amount” value is 21.5%, the Clearance rate entry was “Medium”, the CLint scaled at 1 µM was 202 mL/min/kg and the half-life at 1 µM came to 27.2 min. Besides, the microsomal CLint at 1 µM in data set [1] came out at 51 µL/min/mg. Also, in data set [2], the “60 min remaining amount” value is 64.8%, the Clearance rate result was “Medium”, the CLint scaled at 1 µM was determined as 15.3 mL/min/kg and the half-life at 1 µM came out at 81.5 min. The microsomal CLint at 1 µM in data set [2] was 17 µL/min/mg. Moreover, in data set [3], the “60 min remaining amount” value was 15.7%, the Clearance rate result is “Medium”, the CLint scaled at 1 µM is 110 mL/min/kg and the half-life at 1 µM is 22.7 min. The microsomal CLint at 1 µM in data set [3] stood at 61 µL/min/mg.
Consider `CN1CCN(c2ccc(OC(F)(F)F)c(Nc3ncc4c(n3)-c3c(c(C(N)=O)nn3CCC#N)CC4)c2)CC1` [Compound 4], for which, on PLK1 kinase, the pIC50 is 8.79 and the Imax worked out at 99.51%. Also, the pIC50 in the data set on HCT116 cells (read-out: IC50) is 6.48. Moreover, in data set [1], the “60 min remaining amount” value was determined as 1.33%, the Clearance rate entry was “High”, the CLint scaled at 1 µM worked out at 1230 mL/min/kg and the half-life at 1 µM is 4.47 min. Further, the microsomal CLint at 1 µM in data set [1] was 310 µL/min/mg. Also, in data set [2], the “60 min remaining amount” value came out at 23.7%, the Clearance rate result is on record as “Medium”, the CLint scaled at 1 µM was 44.1 mL/min/kg and the half-life at 1 µM is 28.3 min. The microsomal CLint at 1 µM in data set [2] came out at 49 µL/min/mg. In data set [3], the “60 min remaining amount” value is 2.76%, the Clearance rate result was “High”, the CLint scaled at 1 µM was found to be 211 mL/min/kg and the half-life at 1 µM stood at 11.8 min. The microsomal CLint at 1 µM in data set [3] worked out at 117 µL/min/mg.
Turning to `Cn1nc(C(N)=O)c2c1-c1nc(Nc3cc(N4CCN(CCO)CC4)ccc3OC(F)(F)F)ncc1CC2` [Compound 20], on PLK1 kinase, the pIC50 is 8.89 and the Imax is listed as 99.29%. The pIC50 in the data set with HCT116 cells (read-out: IC50) was 6.84. Moreover, in data set [1], the “60 min remaining amount” value is given as 15.9%, the Clearance rate result is recorded as “High”, the CLint scaled at 1 µM turned out to be 238 mL/min/kg and the half-life at 1 µM is 23.1 min. The microsomal CLint at 1 µM in data set [1] is 60 µL/min/mg. In addition, in data set [2], the “60 min remaining amount” value is recorded as 26.5%, the Clearance rate entry is “Medium”, the CLint scaled at 1 µM is 39.1 mL/min/kg and the half-life at 1 µM stood at 31.9 min. For the same compound, the microsomal CLint at 1 µM in data set [2] is 43.4 µL/min/mg. Besides, in data set [3], the “60 min remaining amount” value was 21.6%, the Clearance rate result is “Medium”, the intrinsic clearance (CLint scaled) at 1 µM was 95.4 mL/min/kg and the half-life at 1 µM turned out to be 26.2 min. Moreover, the microsomal CLint at 1 µM in data set [3] came to 53 µL/min/mg.
Turning to `CN1CCN(c2ccc(OC(F)(F)F)c(Nc3ncc4c(n3)-c3c(c(C(N)=O)cn3CCO)CC4)c2)CC1` [Compound 2], on PLK1 kinase, the pIC50 was 9.00 and the Imax is given as 99.81%. In addition, in the data set on HCT116 cells (read-out: IC50), the pIC50 is 7.57. In addition, the pIC50 in the data set on HCT116 cells (setting [4]) is 7.57. Further, in data set [1], the “60 min remaining amount” value was 26.7%, the Clearance rate entry is “Medium”, the CLint scaled at 1 µM came to 175 mL/min/kg and the half-life at 1 µM stood at 31.4 min. For the same compound, the microsomal CLint at 1 µM in data set [1] is 44.2 µL/min/mg. Moreover, in data set [2], the “60 min remaining amount” value was found to be 49.9%, the Clearance rate entry is reported as “Medium”, the CLint scaled at 1 µM turned out to be 22.7 mL/min/kg and the half-life at 1 µM is 55 min. The microsomal CLint at 1 µM in data set [2] was found to be 25.2 µL/min/mg. In data set [3], the “60 min remaining amount” value is listed as 17.0%, the Clearance rate entry is reported as “Medium”, the intrinsic clearance (CLint scaled) at 1 µM was 103 mL/min/kg and the half-life at 1 µM was determined as 24.3 min. For the same compound, the microsomal CLint at 1 µM in data set [3] was 57 µL/min/mg.
On to `CN1CCN(c2ccc(OCC(F)(F)F)c(Nc3ncc4c(n3)-c3c(c(C(N)=O)nn3CCO)CC4)c2)CC1` [Compound 24], for which, at PLK1 kinase, the pIC50 is 8.92 and the Imax stood at 99.48%. For the same compound, in the data set on HCT116 cells (read-out: IC50), the pIC50 was 7.49. The pIC50 with HCT116 cells (setting [4]) is 7.49. Besides, in data set [1], the “60 min remaining amount” value is 58.2%, the Clearance rate result was “Medium”, the CLint scaled at 1 µM is 74.4 mL/min/kg and the half-life at 1 µM stood at 73.7 min. The microsomal CLint at 1 µM in data set [1] turned out to be 18.8 µL/min/mg. In data set [2], the “60 min remaining amount” value was 40.1%, the Clearance rate result is recorded as “Medium”, the CLint scaled at 1 µM was found to be 28.6 mL/min/kg and the half-life at 1 µM worked out at 43.6 min. For the same compound, the microsomal CLint at 1 µM in data set [2] amounted to 31.8 µL/min/mg. Moreover, in data set [3], the “60 min remaining amount” value is 47.9%, the Clearance rate entry is “Medium”, the CLint scaled at 1 µM was 46.4 mL/min/kg and the half-life at 1 µM came out at 53.7 min. The microsomal CLint at 1 µM in data set [3] was found to be 25.8 µL/min/mg.
